The values that follow come from patent US10526327B2, “Histone demethylase inhibitors” (CELGENE QUANTICEL RESEARCH, INC., priority 2013, dated 2020).

This assay deals with T1, JMJD2C (Homo sapiens, UniProt Q9H3R0).
T1 construct: purchased BPS Bioscience 50105
T1 sequence (Q9H3R0 2-372): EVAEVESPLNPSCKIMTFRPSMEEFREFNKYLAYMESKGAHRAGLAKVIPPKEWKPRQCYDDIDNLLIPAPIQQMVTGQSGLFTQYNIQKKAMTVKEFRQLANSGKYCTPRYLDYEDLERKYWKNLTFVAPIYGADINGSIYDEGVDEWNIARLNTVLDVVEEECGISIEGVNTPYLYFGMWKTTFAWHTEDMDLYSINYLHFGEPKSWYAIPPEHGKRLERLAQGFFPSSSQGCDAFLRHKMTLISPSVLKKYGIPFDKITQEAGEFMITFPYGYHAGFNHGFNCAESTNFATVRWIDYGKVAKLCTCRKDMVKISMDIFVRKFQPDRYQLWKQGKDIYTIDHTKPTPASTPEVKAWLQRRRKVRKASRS
The assay can be described thus: JMJD2C in vitro enzyme inhibition assay (TR-FRET). Format: biochemical. The method, boiled down:
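IC50 came from 665/615 TR-FRET ratios (Eu-anti-H3K9me2 antibody, streptavidin-APC, EDTA quench) over 11-point inhibitor series. Reactions ran 30 min at room temperature: 0.3 nM JMJD2C (AA 2-372, baculovirus), 300 nM biotinylated H3K9me3 peptide, 2 μM alpha-ketoglutarate, 2 μM Fe(II), ascorbate, pH 7.3.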
By IC50 is commonly meant the concentration that gives 50% inhibition. A higher IC50 goes with weaker potency. The compound `CC(=O)N1CC[C@H](n2cc(Oc3nc(O)c4ccncc4n3)cn2)C1` [Example 139, 1-[(3S)-3-[4-({4-hydroxypyrido[3,4-d]pyrimidin-2-yl}oxy)-1H-pyrazol-1-yl]pyrrolidin-1-yl]ethan-1-one] displayed an IC50 not above 100 nM.

Compound `O=S(=O)(c1ccccc1)N1CC[C@@H](n2cc(Oc3nc(O)c4ccncc4n3)cn2)C1` [Example 128, 2-({1-[(3R)-1-(benzenesulfonyl)pyrrolidin-3-yl]-1H-pyrazol-4-yl}oxy)pyrido[3,4-d]pyrimidin-4-ol] showed an IC50 not above 100 nM.

`O=S(=O)(C1CC1)N1CCC[C@H](n2cc(Oc3nc(O)c4ccncc4n3)cn2)C1` [Example 162, 2-({1-[(3S)-1-(cyclopropanesulfonyl)piperidin-3-yl]-1H-pyrazol-4-yl}oxy)pyrido[3,4-d]pyrimidin-4-ol] showed an IC50 not above 100 nM.

The compound `CC(C)COc1nc(O)c2ccncc2n1` [Example 14, 2-(2-methylpropoxy)pyrido[3,4-d]pyrimidin-4-ol] showed an IC50 of 100 to 1000 nM.

Compound `CCC(c1ccccc1)n1cc(Oc2nc(O)c3ccncc3n2)cn1` (stereo not drawn) [Example 115, 2-{[1-(1-phenylpropyl)-1H-pyrazol-4-yl]oxy}pyrido[3,4-d]pyrimidin-4-ol] returned an IC50 not above 100 nM.

Compound `Cn1cnc(-c2nccc3c(O)nc(OCc4ccccc4C(F)(F)F)nc23)c1` [Example 107, 8-(1-methyl-1H-imidazol-4-yl)-2-{[2-(trifluoromethyl)phenyl]methoxy}pyrido[3,4-d]pyrimidin-4-ol] had an IC50 of 100 to 1000 nM.
